Literature values, collected in US10421710B2, “Substituted phenethylamines with serotoninergic and/or norepinephrinergic activity” (Auspex Pharmaceuticals, Inc., priority 2007, dated 2019).
Several values for one entry are separate records, joined by “and”; a condition that tells them apart may be missing. Equal entries are not always repeated.

Settings: in humans (b8); species not repeated

Row | half-life (T1/2) | Compound
1 | ~5 h and 3 to 7 h | COc1ccc(C(CN(C)C)C2(O)CCCCC2)cc1 (racemic) [venlafaxine, 1-[2-dimethylamino-1-(4-methoxy-phenyl)-ethyl]-cyclohexanol]
2 | ~11 h and 11 h | CN(C)CC(c1ccc(O)cc1)C1(O)CCCCC1 (centres unmarked) [ODV, 0-desmethylvenlafaxine]
